Test results published in article PMC3445516 (PLoS ONE, 2012).
Read-outs that look alike come from different tables or passages of the source.

Experiments:
[1] = biological target: T1, recombinant GST-tagged human protein kinase D1 (PKD1) (Homo sapiens, UniProt Q15139); assay: In vitro radiometric PKD1 kinase assay; type: biochemical; conditions: read-out: Inhibition of PKD1
T1 construct: purchased Enzo Life sciences (Farmingdale, NY)
T1 sequence (Q15139 1-912): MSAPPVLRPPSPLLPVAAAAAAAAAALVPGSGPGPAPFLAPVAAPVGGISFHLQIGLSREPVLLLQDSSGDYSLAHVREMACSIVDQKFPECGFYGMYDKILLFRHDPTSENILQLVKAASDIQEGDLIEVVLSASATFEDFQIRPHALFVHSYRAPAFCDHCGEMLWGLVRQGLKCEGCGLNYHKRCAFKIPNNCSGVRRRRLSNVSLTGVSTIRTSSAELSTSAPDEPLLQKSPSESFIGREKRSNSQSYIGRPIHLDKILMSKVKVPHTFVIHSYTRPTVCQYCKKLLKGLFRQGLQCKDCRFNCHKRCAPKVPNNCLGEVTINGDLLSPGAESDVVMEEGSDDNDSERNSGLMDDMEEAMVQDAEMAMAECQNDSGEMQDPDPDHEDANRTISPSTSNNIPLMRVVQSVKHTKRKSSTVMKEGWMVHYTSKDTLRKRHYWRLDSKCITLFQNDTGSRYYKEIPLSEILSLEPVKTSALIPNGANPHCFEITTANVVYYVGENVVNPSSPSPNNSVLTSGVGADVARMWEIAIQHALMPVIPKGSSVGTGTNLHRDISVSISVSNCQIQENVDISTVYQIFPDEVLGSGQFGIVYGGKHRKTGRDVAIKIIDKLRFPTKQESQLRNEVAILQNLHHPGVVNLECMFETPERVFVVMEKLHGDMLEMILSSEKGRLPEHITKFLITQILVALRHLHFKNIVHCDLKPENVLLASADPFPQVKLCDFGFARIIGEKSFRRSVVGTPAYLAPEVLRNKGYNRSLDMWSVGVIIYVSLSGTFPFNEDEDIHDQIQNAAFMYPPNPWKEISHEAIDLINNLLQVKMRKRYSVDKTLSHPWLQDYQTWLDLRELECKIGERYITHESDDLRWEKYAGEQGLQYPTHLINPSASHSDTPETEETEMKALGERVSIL
Experimental: All compounds were given distinct UPCMLD (University of Pittsburgh Center for Chemical Methodologies and Library Development) IDs and were then assigned numerical IDs for convenient data display. Evaluation of each compound was carried out in triplicate at a single concentration (1 µM). Our previously described PKD1 inhibitor, kb-NB142-70, and DMSO (solvent alone) were used as positive and negative controls, respectively. Percent residual kinase activity was calculated based on that of the negative control (DMSO).
Kinase active recombinant GST-tagged human protein kinase D1 (PKD1) was obtained from Enzo Life sciences (Farmingdale, NY). DMSO was purchased from Sigma. Recombinant PKCα, PKCδ and CAMKIIα were obtained from SignalChem (Richmond, BC, Canada). ATP was purchased from Fisher Scientific. HDAC5 substrate peptide was synthesized by Biobasic Canada Inc. (Markham, ON). Myelin basic protein 4–14 was purchased from AnaSpec Inc. (Fremont, CA). The targeted kinase inhibitor library was obtained from Hoffmann-La Roche, Inc.
1.2 µg of HDAC-5 was used as substrate in the reaction. Phosphorylation of HDAC5 was detected in a kinase reaction having 1 µCi [γ-^32P] […] The reaction was incubated at 30° for 10 minutes and 25 µL of the reaction was spotted on Whatman P81 filter paper. The filter paper was washed 3 times in 0.5% phosphoric acid, air dried and counted using Beckman LS6500 multipurpose scintillation counter. Percent PKD1 inhibition was graphed using GraphPad Prism software 5.0.

TTK = biological target: T2, TTK (Homo sapiens, UniProt P33981); assay: Ambit kinase profiling, competition binding
T2 construct: purchased Ambit Biosciences (KINOMEscan)
T2 sequence (P33981 1-857): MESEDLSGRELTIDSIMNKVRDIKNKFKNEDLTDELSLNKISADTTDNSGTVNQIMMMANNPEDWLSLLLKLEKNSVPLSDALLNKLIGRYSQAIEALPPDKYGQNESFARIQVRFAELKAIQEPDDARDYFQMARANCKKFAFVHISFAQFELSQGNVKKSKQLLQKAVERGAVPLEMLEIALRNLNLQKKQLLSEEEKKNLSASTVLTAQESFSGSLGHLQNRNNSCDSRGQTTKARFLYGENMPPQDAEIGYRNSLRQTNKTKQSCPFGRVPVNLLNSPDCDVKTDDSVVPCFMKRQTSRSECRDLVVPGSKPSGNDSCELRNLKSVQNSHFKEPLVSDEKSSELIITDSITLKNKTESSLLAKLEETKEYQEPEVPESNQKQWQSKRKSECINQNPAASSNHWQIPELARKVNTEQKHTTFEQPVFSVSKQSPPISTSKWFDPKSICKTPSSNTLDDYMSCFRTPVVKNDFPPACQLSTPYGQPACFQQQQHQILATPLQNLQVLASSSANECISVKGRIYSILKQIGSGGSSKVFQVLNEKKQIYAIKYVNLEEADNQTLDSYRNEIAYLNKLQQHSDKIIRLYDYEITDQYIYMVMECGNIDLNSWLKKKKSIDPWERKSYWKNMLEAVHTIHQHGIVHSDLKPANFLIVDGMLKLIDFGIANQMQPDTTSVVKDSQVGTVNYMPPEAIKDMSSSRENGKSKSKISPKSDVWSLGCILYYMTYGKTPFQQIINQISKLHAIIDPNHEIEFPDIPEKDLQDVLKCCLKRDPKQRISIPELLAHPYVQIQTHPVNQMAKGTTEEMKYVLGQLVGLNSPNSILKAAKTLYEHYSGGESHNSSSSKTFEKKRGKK
Experimental: (§1) Also included in the kinase profile are four isoforms of PKC (δ, ε, η, θ) and eight isoforms of CAMKs (CAMKIα, δ, γ; CAMKIIα, β, δ, γ; CAMK4).
(§2) The global kinase profiling experiment was performed by Ambit Biosciences.

SRC = biological target: T3, SRC (Homo sapiens, UniProt P12931); assay: Ambit kinase profiling, competition binding
T3 construct: purchased Ambit Biosciences (KINOMEscan)
Experimental: as §1, §2

PKCδ = PKCδ (Homo sapiens, UniProt Q05655); assay: Ambit kinase profiling, competition binding; design: purchased Ambit Biosciences (KINOMEscan); conditions: for competition: PKC δ, 10 µM
Experimental: as §1, §2

p38α = p38α (Homo sapiens, UniProt Q16539); design: method as in PMID 14561090; conditions: read-out: in vitro IC50 for p38α; cited from earlier work
PIK3C2B = biological target: T4, PIK3C2B (Homo sapiens, UniProt O00750); assay: Ambit kinase profiling, competition binding; conditions: compound concentration 10 uM, read-out: Percent Competition
T4 construct: purchased Ambit Biosciences (KINOMEscan)
Text: (§3) Supplement pone.0044653.s004.xls, sheet "Compound 122" | column: Percent Competition

FYN = biological target: T5, FYN (Homo sapiens, UniProt P06241); assay: Ambit kinase profiling, competition binding; conditions: compound concentration 10 uM, read-out: Percent Competition
T5 construct: purchased Ambit Biosciences (KINOMEscan)
Text: as §3

PKCδ, sequence (Q05655 whole entry): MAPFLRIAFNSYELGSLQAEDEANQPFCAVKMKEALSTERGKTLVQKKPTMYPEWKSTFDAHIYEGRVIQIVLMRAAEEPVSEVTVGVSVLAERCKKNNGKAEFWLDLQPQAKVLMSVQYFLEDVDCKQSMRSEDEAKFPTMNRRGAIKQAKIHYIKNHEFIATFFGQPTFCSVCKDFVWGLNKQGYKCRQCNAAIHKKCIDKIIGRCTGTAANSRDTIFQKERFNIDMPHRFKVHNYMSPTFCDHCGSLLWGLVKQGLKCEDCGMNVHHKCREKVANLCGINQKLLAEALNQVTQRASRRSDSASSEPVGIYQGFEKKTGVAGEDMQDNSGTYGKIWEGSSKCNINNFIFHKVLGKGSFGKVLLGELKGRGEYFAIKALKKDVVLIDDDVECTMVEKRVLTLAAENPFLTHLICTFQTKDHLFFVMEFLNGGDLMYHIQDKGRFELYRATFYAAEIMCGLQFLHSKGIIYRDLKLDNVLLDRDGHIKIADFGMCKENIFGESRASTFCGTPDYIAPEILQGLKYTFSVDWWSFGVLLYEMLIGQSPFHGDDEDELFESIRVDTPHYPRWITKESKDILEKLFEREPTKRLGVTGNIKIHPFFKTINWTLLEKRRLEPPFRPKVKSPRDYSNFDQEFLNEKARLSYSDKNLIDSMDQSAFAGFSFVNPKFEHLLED
T3 sequence (P12931 whole entry): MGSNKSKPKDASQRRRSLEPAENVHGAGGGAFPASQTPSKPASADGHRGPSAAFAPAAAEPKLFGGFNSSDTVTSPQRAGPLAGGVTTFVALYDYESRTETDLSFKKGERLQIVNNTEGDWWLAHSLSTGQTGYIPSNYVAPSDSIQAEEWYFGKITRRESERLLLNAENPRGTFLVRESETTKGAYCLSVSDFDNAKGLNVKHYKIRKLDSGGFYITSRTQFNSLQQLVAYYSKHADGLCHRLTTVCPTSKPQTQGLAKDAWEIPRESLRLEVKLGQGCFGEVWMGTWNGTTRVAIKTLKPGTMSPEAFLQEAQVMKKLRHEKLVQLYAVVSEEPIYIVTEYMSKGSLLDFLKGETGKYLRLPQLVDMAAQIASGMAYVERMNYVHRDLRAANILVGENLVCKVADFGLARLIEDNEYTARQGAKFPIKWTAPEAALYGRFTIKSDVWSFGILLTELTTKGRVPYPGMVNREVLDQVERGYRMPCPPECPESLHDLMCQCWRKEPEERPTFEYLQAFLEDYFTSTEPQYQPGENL
T4 sequence (O00750 whole entry): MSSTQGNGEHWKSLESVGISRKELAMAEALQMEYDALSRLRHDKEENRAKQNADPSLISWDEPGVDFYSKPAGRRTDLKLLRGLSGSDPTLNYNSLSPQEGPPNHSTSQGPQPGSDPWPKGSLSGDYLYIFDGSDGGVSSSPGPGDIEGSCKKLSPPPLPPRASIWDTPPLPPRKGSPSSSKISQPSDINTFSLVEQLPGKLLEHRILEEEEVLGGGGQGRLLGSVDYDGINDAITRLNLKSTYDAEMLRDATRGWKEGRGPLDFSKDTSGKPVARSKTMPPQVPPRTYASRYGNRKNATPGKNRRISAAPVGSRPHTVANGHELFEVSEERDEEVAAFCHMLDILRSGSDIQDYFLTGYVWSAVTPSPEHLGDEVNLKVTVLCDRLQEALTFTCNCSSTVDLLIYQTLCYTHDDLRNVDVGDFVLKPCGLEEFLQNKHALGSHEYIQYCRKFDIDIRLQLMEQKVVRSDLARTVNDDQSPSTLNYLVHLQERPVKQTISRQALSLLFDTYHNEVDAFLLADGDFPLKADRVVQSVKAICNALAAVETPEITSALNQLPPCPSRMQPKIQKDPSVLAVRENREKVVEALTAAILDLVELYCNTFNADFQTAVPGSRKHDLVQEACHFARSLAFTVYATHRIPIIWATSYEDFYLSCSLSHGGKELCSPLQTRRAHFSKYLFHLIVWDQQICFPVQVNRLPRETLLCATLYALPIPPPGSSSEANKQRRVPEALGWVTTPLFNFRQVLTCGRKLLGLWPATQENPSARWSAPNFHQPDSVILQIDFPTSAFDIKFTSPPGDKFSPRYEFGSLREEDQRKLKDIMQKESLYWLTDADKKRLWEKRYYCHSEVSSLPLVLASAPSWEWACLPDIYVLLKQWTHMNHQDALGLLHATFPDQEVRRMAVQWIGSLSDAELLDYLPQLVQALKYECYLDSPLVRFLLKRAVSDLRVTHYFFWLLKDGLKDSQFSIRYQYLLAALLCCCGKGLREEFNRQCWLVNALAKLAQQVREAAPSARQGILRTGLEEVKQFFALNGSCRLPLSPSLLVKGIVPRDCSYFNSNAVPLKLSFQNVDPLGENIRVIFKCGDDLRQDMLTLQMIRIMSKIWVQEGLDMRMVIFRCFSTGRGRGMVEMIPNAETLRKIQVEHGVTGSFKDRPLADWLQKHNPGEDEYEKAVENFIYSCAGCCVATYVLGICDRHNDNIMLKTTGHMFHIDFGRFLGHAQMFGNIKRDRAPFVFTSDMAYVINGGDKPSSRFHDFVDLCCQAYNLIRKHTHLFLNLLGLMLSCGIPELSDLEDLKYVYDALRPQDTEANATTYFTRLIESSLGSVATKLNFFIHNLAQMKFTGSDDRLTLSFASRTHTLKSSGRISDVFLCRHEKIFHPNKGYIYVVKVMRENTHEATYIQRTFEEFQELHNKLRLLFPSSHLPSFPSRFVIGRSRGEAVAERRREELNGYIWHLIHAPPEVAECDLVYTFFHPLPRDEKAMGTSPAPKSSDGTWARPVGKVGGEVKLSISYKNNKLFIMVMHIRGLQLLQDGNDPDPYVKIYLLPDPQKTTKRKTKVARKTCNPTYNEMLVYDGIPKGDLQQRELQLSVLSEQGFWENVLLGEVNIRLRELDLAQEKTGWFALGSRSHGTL
p38α, sequence (Q16539 whole entry): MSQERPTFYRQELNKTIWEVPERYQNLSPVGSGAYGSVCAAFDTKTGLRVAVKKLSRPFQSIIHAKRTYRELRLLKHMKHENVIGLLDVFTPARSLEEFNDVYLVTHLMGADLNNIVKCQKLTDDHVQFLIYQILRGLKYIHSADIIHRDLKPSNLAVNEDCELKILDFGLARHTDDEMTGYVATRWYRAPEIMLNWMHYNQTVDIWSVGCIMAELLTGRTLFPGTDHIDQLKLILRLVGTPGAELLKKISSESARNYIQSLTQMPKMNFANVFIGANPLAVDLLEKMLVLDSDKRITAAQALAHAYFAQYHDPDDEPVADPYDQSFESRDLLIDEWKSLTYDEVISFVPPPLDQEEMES
T5 sequence (P06241 whole entry): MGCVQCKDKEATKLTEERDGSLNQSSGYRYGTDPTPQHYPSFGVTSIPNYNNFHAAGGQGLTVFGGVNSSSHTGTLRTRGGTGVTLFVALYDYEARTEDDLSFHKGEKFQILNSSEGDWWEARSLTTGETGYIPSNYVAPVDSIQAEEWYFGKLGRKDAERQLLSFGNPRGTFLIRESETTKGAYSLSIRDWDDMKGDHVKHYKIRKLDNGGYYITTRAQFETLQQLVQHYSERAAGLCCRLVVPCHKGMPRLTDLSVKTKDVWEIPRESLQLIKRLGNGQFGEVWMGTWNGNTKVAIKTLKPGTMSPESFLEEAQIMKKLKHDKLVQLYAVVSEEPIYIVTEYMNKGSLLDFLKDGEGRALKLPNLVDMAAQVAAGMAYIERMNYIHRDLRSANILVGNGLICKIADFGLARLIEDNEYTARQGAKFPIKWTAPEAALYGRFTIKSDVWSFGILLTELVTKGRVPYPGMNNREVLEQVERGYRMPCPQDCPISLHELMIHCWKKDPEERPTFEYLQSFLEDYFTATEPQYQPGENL

inhibition at 1 µM ([1]; 1 µM, triplicate determinations)	inhibition at 10 µM (TTK; TTK, 10 µM, read-out: % Competition)	inhibition at 10 µM (SRC; SRC, 10 µM, read-out: % Competition)	inhibition at 10 µM (PIK3C2B)	inhibition at 10 µM (FYN)	inhibition at 10 µM (TTK; TTK, compound concentration 10 uM, read-out: Percent Competition)	inhibition at 10 µM (SRC; SRC, compound concentration 10 uM, read-out: Percent Competition)	inhibition at 10 µM (PKCδ; PRKCD, compound concentration 10 uM, read-out: Percent Competition)	Structure (SMILES)	competition (PKCδ)	inhibition at 1 µM [1]	inhibition at 10 µM (TTK; read-out: % Competition)	inhibition at 10 µM (SRC; read-out: % Competition)	IC50 (p38α)
62%	88%	87%	–	–	–	–	–	Fc1ccc(-c2c(-c3ccncc3)[nH]c3nccnc23)cc1 [Compound 122]	< 50%	–	–	–	–
–	–	–	–	–	–	–	–	CC(O)CNc1cc(-c2[nH]c3cccnc3c2-c2ccc(F)cc2)ccn1 (centres unmarked) [Compound 140]	< 50%	80%	90%	< 50%	1 nM
–	–	–	< 50%	< 50%	88%	87%	< 50%	Fc1ccc(-c2c(-c3ccncc3)[nH]c3nccnc23)cc1 [RO1155697-000-005]	–	–	–	–	–
